Legend:
[1] = tested on: MV4:11 human cancer cell lines; test: Cellular viability / anti-proliferative assay, CellTiter-Glo, 5 day protocol; format: cell-based; conditions: Homo sapiens, MV4-11, 120 h, MV4:11 cells; 5 day incubation; CellTiter-Glo; mean of at least two replicates; read-out: GI50 on cellular proliferation of MV4:11 human cancer cell lines
Outline: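 Luminescent ATP-based viability (CellTiter-Glo) after a 5-day exposure gave GI50 via sigmoidal fitting, averaged over two or more replicates. Compounds spanned 22 two-fold steps down from 30 μM at 0.3% DMSO, on 200 MV-4-11 cells per well grown in IMDM plus 10% FBS.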

[2] = biological target: WDR5 (Homo sapiens, UniProt P61964); test: TR-FRET competition binding assay, displacement of 10mer-Thr-FAM MLL peptide probe from His-tagged WDR5; conditions: WDR5-His tag (residues 24-334) 2 nM; 10mer-Thr-FAM 150 nM; 60 min, room temperature; read-out: Ki for Inhibition of WDR5 by TR-FRET assay

SMILES	GI50 [1]	Ki [2]
CCc1cnc2cccc(N3CCc4c(cc(Cn5ccnc5)cc4-c4cn(C)nc4C(F)(F)F)C3=O)c2c1 [Example 90, 7-((1H-Imidazol-1-yl)methyl)-2-(3-ethylquinolin-5-yl)-5-(1-methyl-3-(trifluoromethyl)-1H-pyrazol-4-yl)-3,4-dihydroisoquinolin-1(2H)-one]	21 nM	0.033 nM
COc1cc(OC)c2cncc(N3CCc4c(cc(Cn5ccnc5)cc4-c4cn(C)nc4C(F)(F)F)C3=O)c2c1 [Example 122, 7-((1H-Imidazol-1-yl)methyl)-6′,8′-dimethoxy-5-(1-methyl-3-(trifluoromethyl)-1H-pyrazol-4-yl)-3,4-dihydro-1H-[2,4′-biisoquinolin]-1-one]	27 nM	0.052 nM
CCc1cc(COC)c2nc(C)cc(N3CCc4c(cc(Cn5ccnc5)cc4-c4cn(C)nc4C(F)(F)F)C3=O)c2c1 [Example 156, 7-((1H-Imidazol-1-yl)methyl)-2-(6-ethyl-8-(methoxymethyl)-2-methylquinolin-4-yl)-5-(1-methyl-3-(trifluoromethyl)-1H-pyrazol-4-yl)-3,4-dihydroisoquinolin-1(2H)-one]	28 nM	0.02 nM
CCc1cc(N2CCN3CCOC[C@@H]3C2)c2nc(C)cc(N3CCc4c(cc(Cn5ccnc5)cc4-c4cn(C)nc4C(F)(F)F)C3=O)c2c1 [Example 134, (S)-7-((1H-imidazol-1-yl)methyl)-2-(6-ethyl-8-(hexahydropyrazino[2,1-c][1,4]oxazin-8(1H)-yl)-2-methylquinolin-4-yl)-5-(1-methyl-3-(trifluoromethyl)-1H-pyrazol-4-yl)-3,4-dihydroisoquinolin-1(2H)-one]	< 20 nM	0.03 nM
COc1cc(C#N)c2nc(C)cc(N3CCc4c(cc(Cn5ccnc5)cc4-c4cn(C)nc4C(F)(F)F)C3=O)c2c1 [Example 175, 4-(7-((1H-Imidazol-1-yl)methyl)-5-(1-methyl-3-(trifluoromethyl)-1H-pyrazol-4-yl)-1-oxo-3,4-dihydroisoquinolin-2(1H)-yl)-6-methoxy-2-methylquinoline-8-carbonitrile]	< 20 nM	< 0.02 nM
COc1cc(C)cc2c(N3CCc4c(cc(Cn5ccnc5)cc4-c4cn(C)nc4C(F)(F)F)C3=O)ccnc12 [Example 19, 7-((1H-Imidazol-1-yl)methyl)-2-(8-methoxy-6-methylquinolin-4-yl)-5-(1-methyl-3-(trifluoromethyl)-1H-pyrazol-4-yl)-3,4-dihydroisoquinolin-1(2H)-one]	26 nM	0.02 nM
CCc1cc(COC2CCOCC2)c2nccc(N3CCc4c(cc(Cn5ccnc5)cc4-c4cn(C)nc4C(F)(F)F)C3=O)c2c1 [Example 182, 7-((1H-Imidazol-1-yl)methyl)-2-(6-ethyl-8-(((tetrahydro-2H-pyran-4-yl)oxy)methyl)quinolin-4-yl)-5-(1-methyl-3-(trifluoromethyl)-1H-pyrazol-4-yl)-3,4-dihydroisoquinolin-1(2H)-one]	< 20 nM	< 0.02 nM
COc1ccc2c(c1)C(N1CCc3c(cc(Cn4ccnc4)cc3-c3cn(C)nc3C(F)(F)F)C1=O)CCO2 (stereo not shown) [Example 67, 7-((1H-Imidazol-1-yl)methyl)-2-(6-methoxychroman-4-yl)-5-(1-methyl-3-(trifluoromethyl)-1H-pyrazol-4-yl)-3,4-dihydroisoquinolin-1(2H)-one]	35 nM	0.062 nM
COc1ccc2c(=O)[nH]cc(N3CCc4c(cc(Cn5ccnc5)cc4-c4cn(C)nc4C(F)(F)F)C3=O)c2c1 [Example 98, 7-((1H-imidazol-1-yl)methyl)-6′-methoxy-5-(1-methyl-3-(trifluoromethyl)-1H-pyrazol-4-yl)-3,4-dihydro-1H-[2,4′-biisoquinoline]-1,1′(2′H)-dione]	163 nM	0.059 nM
COc1cc(OC)c2nccc(N3CCc4c(cc(Cn5ccnc5)cc4-c4cn(C)nc4C(F)(F)F)C3=O)c2c1 [Example 17, 7-((1H-Imidazol-1-yl)methyl)-2-(6,8-dimethoxyquinolin-4-yl)-5-(1-methyl-3-(trifluoromethyl)-1H-pyrazol-4-yl)-3,4-dihydroisoquinolin-1(2H)-one]	< 20 nM	0.025 nM
Cc1nccn1Cc1cc2c(c(-c3cn(C)nc3C(F)(F)F)c1)CCN(c1cn(C)c3ncc(F)cc13)C2=O [Example 82, 2-(5-Fluoro-1-methyl-1H-pyrrolo[2,3-b]pyridin-3-yl)-7-((2-methyl-1H-imidazol-1-yl)methyl)-5-(1-methyl-3-(trifluoromethyl)-1H-pyrazol-4-yl)-3,4-dihydroisoquinolin-1(2H)-one]	384 nM	0.061 nM
COc1cc(COC2CCN(C)CC2)c2nccc(N3CCc4c(cc(Cn5ccnc5)cc4-c4cn(C)nc4C(F)(F)F)C3=O)c2c1 [Example 169, 7-((1H-Imidazol-1-yl)methyl)-2-(6-methoxy-8-(((1-methylpiperidin-4-yl)oxy)methyl)quinolin-4-yl)-5-(1-methyl-3-(trifluoromethyl)-1H-pyrazol-4-yl)-3,4-dihydroisoquinolin-1(2H)-one]	< 20 nM	< 0.02 nM
Cc1nccn1Cc1cc2c(c(-c3cn(C)nc3C(F)(F)F)c1)CCN(C1CCOc3ccc(C4CC4)cc31)C2=O (stereo not shown) [Example 63, 2-(6-Cyclopropylchroman-4-yl)-7-((2-methyl-1H-imidazol-1-yl)methyl)-5-(1-methyl-3-(trifluoromethyl)-1H-pyrazol-4-yl)-3,4-dihydroisoquinolin-1(2H)-one]	87 nM	0.068 nM
COc1ccc2c(C)ncc(N3CCc4c(cc(Cn5ccnc5)cc4-c4cn(C)nc4C(F)(F)F)C3=O)c2c1 [Example 88, 7-((1H-imidazol-1-yl)methy)-6′-methoxy-1′-methyl-5-(1-methyl-3-(trifluoromethyl)-1H-pyrazol-4-yl)-3,4-dihydro-1H-[2,4′-biisoquinolin]-1-one]	< 20 nM	0.043 nM
Cc1nc2cccc(N3CCc4c(cc(Cn5ccnc5)cc4-c4cn(C)nc4C(F)(F)F)C3=O)c2o1 [Example 27, 7-((1H-Imidazol-1-yl)methyl)-5-(1-methyl-3-(trifluoromethyl)-1H-pyrazol-4-yl)-2-(2-methylbenzo[d]oxazol-7-yl)-3,4-dihydroisoquinolin-1(2H)-one]	> 30000 nM	4.6 nM
Cc1nccn1Cc1cc2c(c(-c3cn(C)nc3C(F)(F)F)c1)CCN(c1ccnc3cc(Cl)ccc13)C2=O [Example 2, 2-(7-Chloroquinolin-4-yl)-7-((2-methyl-1H-imidazol-1-yl)methyl)-5-(1-methyl-3-(trifluoromethyl)-1H-pyrazol-4-yl)-3,4-dihydroisoquinolin-1(2H)-one]	189 nM	0.05 nM
COc1cc(CN2CCC(OC)CC2)c2nccc(N3CCc4c(cc(Cn5ccnc5)cc4-c4cn(C)nc4C(F)(F)F)C3=O)c2c1 [Example 142, 7-((1H-Imidazol-1-yl)methyl)-2-(6-methoxy-8-((4-methoxypiperidin-1-yl)methyl)quinolin-4-yl)-5-(1-methyl-3-(trifluoromethyl)-1H-pyrazol-4-yl)-3,4-dihydroisoquinolin-1(2H)-one]	< 20 nM	0.036 nM

Reference: patent publication US12692249B2, “WDR5 inhibitors and modulators” (Vanderbilt University, priority 2019, dated 2026)
